Measurements as given in patent US11839613B2, “Pyrimidine derivatives as PGE2 receptor modulators” (IDORSIA PHARMACEUTICALS LTD, priority 2017, dated 2023).

Tests used:
PTGER2 (EP2) = PTGER2 (EP2) (Homo sapiens (Human), UniProt P43116); experiment: hEP2 b-arrestin assay (PathHunter HEK 293 PTGER2 b-arrestin cells); type: cell-based; settings: antagonistic activity, beta-arrestin assay; read-out: hEP2 b-arr IC50
Experimental: Plate is pre-incubated 15 minutes at 37° C. Then five microliters of PGE2 (final conc. 5 μM) are transferred into the assay plate. Plate is incubated 120 minutes at 37° C.
(each concentration is measured in duplicate)

PTGER4 (EP4) = PTGER4 (EP4) (Homo sapiens (Human), UniProt P35408); experiment: cell-based
Sequence of PTGER4 (EP4) (P35408 whole entry): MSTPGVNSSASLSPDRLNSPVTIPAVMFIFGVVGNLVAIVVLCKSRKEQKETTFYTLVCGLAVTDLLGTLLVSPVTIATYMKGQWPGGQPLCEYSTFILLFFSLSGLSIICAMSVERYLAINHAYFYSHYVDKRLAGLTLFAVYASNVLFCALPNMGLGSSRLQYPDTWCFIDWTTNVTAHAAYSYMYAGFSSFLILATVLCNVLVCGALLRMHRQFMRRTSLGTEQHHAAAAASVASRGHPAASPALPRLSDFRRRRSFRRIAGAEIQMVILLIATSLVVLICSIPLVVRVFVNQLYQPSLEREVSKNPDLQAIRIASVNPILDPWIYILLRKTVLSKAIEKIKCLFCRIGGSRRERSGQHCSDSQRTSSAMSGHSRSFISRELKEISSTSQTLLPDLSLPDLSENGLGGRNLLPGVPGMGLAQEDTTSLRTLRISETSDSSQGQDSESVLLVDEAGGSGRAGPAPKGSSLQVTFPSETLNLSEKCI
Excerpt: The system is based on the Enzyme Fragment Complementation Technology. Two complementing fragments of the b-galactosidase enzyme are expressed within stably transfected cells. The larger portion of b-gal, termed EA for Enzyme Acceptor, is fused to the C-terminus of b-arrestin 2. The smaller fragment, termed ProLink™ tag, is fused to PTGER2 (EP2) or PTRGER4 (EP4) at the C-terminus. Upon activation, b-arrestin is recruited which forces the interaction of ProLink and EA, allowing complementation of the two fragments of b-gal and the formation of a functional enzyme which is capable of hydrolysing the substrate and generating a chemiluminescent signal.
Plate is incubated at 37° C., 5% CO2 for 24 hours.
Stock solutions of test compounds are made at a concentration of 10 mM in DMSO, and serially diluted in DMSO to concentrations required for inhibition dose response curves (tested concentration range 10 μM-2 nM or 1 μM-0.2 nM).
Five microliters of diluted compounds are transferred into the assay plate. Plate is pre-incubated 15 minutes at 37° C. Then five microliters of PGE2 (final conc. 20 nM) are transferred into the assay plate. Plate is incubated 120 minutes at 37° C.
Twelve I of reagent are transferred to the assay plate and incubate for 1 hour at RT in the dark. Luminescence counts are read on a BMG Fluostar Optima reader according to manufacturer's instructions.
For each compound concentration calculate of the percentage of activity compared to DMSO control value as average ±STDEV. (each concentration is measured in duplicate)

Sequence of PTGER2 (EP2) (P43116 whole entry): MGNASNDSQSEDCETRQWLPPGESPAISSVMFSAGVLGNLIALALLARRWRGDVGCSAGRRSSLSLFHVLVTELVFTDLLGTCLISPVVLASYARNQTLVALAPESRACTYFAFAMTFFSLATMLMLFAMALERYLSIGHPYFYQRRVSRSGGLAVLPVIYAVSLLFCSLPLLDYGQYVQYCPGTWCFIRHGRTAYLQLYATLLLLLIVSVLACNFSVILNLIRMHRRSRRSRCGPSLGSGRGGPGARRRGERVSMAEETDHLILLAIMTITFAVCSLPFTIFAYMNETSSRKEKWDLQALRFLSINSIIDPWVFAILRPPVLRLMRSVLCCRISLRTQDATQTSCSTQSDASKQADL

Work on `CCCc1cc(-c2cc(NCCc3ccc4scc(Cl)c4c3)ncn2)ccc1CC(=O)O` [Example 498, (4-{6-[2-(3-Chloro-benzo[b]thiophen-5-yl)-ethylamino]-pyrimidin-4-yl}-2-propyl-phenyl)-acetic acid] yielded an IC50 (PTGER2 (EP2)) of 163 nM and an IC50 (PTGER4 (EP4)) of 107 nM.
`Cc1cc(-c2cc(NCCc3cc(F)c4sccc4c3)ncn2)cc(Cl)c1CC(=O)O` [Example 546, (2-Chloro-4-{6-[2-(7-fluoro-benzo[b]thiophen-5-yl)-ethylamino]-pyrimidin-4-yl}-6-methyl-phenyl)-acetic acid] was tested, and the IC50 (PTGER2 (EP2)) was 980 nM and the IC50 (PTGER4 (EP4)) was 166 nM.
`CCOc1cc(-c2cc(NCCc3ccc4ccsc4c3C)ncn2)sc1C(=O)O` [Example 376, 3-Ethoxy-5-{6-[2-(7-methyl-benzo[b]thiophen-6-yl)-ethylamino]-pyrimidin-4-yl}-thiophene-2-carboxylic acid] showed an IC50 (PTGER2 (EP2)) of 50 nM and an IC50 (PTGER4 (EP4)) of 13 nM.
`CCOc1cc(-c2cc(NCCc3cc4ccsc4c(F)c3OC)ncn2)ccc1CC(=O)O` [Example 406, (2-Ethoxy-4-{6-[2-(7-fluoro-6-methoxy-benzo[b]thiophen-5-yl)-ethylamino]-pyrimidin-4-yl}-phenyl)-acetic acid] gave an IC50 (PTGER2 (EP2)) of 45 nM and an IC50 (PTGER4 (EP4)) of 62 nM.
Work on `CCCc1cc(-c2cc(NCCc3cc(C)c4sccc4c3)ncn2)ccc1C(=O)O` [Example 478, 4-{6-[2-(7-Methyl-benzo[b]thiophen-5-yl)-ethylamino]-pyrimidin-4-yl}-2-propyl-benzoic acid] yielded an IC50 (PTGER2 (EP2)) of 788 nM and an IC50 (PTGER4 (EP4)) of 242 nM.
For `O=c1[nH]c(-c2ccc(-c3cc(NCCc4cc(F)c5sccc5c4)ncn3)cc2)no1` [Example 529, 3-(4-(6-((2-(7-fluorobenzo[b]thiophen-5-yl)ethyl)amino)pyrimidin-4-yl)phenyl)-[1,2,4]oxadiazol-5(4H)-one], the IC50 (PTGER2 (EP2)) was 699 nM and the IC50 (PTGER4 (EP4)) was 55 nM.
Compound `COc1cc2c(c(C)c1CCNc1cc(-c3ccc(C(=O)O)c(SC)c3)ncn1)OCCO2` [Example 400, 4-{6-[2-(7-Methoxy-5-methyl-2,3-dihydro-benzo[1,4]dioxin-6-yl)-ethylamino]-pyrimidin-4-yl}-2-methylsulfanyl-benzoic acid] has an IC50 (PTGER2 (EP2)) of 2 nM and an IC50 (PTGER4 (EP4)) of 44 nM.
With `COc1cc(-c2cc(NCCc3ccc4sccc4c3F)ncn2)ccc1CC(=O)O` [Example 382, (4-{6-[2-(4-Fluoro-benzo[b]thiophen-5-yl)-ethylamino]-pyrimidin-4-yl}-2-methoxy-phenyl)-acetic acid] the IC50 (PTGER2 (EP2)) was 160 nM and the IC50 (PTGER4 (EP4)) was 81 nM.
With `CCOc1cc2c(cc1CCNc1cc(-c3ccc(CC(=O)O)c(OC(F)(F)F)c3)ncn1)OCCO2` [Example 427, (4-{6-[2-(7-Ethoxy-2,3-dihydro-benzo[1,4]dioxin-6-yl)-ethylamino]-pyrimidin-4-yl}-2-trifluoromethoxy-phenyl)-acetic acid] the IC50 (PTGER2 (EP2)) was 17 nM and the IC50 (PTGER4 (EP4)) was 90 nM.
`CCCc1cc(-c2cc(NCCc3cc(F)c4sccc4c3)ncn2)ccc1C(=O)NC` [Example 458, 4-{6-[2-(7-Fluoro-benzo[b]thiophen-5-yl)-ethylamino]-pyrimidin-4-yl}-N-methyl-2-propyl-benzamide] showed an IC50 (PTGER2 (EP2)) of 550 nM and an IC50 (PTGER4 (EP4)) of 104 nM.
In the case of `Cc1c(CCNc2cc(-c3ccc(C(=O)O)c(OC4CC4)c3)ncn2)ccc2ccccc12` [Example 521, 2-Cyclopropoxy-4-{6-[2-(1-methyl-naphthalen-2-yl)-ethylamino]-pyrimidin-4-yl}-benzoic acid], the IC50 (PTGER2 (EP2)) is reported as 31 nM and the IC50 (PTGER4 (EP4)) is reported as 78 nM.
`CCc1cc(-c2cc(NCCc3cc(F)c4sccc4c3)ncn2)sc1CC(=O)O` [Example 545, (3-Ethyl-5-{6-[2-(7-fluoro-benzo[b]thiophen-5-yl)-ethylamino]-pyrimidin-4-yl}-thiophen-2-yl)-acetic acid] was tested, and the IC50 (PTGER2 (EP2)) was 394 nM and the IC50 (PTGER4 (EP4)) was 25 nM.
With `O=C(O)c1cccc2cc(-c3cc(NCCc4cc(F)c5sccc5c4)ncn3)[nH]c12` [Example 561, 2-{6-[2-(7-Fluoro-benzo[b]thiophen-5-yl)-ethylamino]-pyrimidin-4-yl}-1H-indole-7-carboxylic acid] the IC50 (PTGER2 (EP2)) was 388 nM and the IC50 (PTGER4 (EP4)) was 103 nM.
With `COc1cc(-c2cc(NCCc3cc(F)c4sccc4c3)ncn2)ccc1OCCC(=O)O` [Example 438, 3-(4-{6-[2-(7-Fluoro-benzo[b]thiophen-5-yl)-ethylamino]-pyrimidin-4-yl}-2-methoxy-phenoxy)-propionic acid] the IC50 (PTGER2 (EP2)) was 519 nM and the IC50 (PTGER4 (EP4)) was 49 nM.
`O=C(O)c1ccc(-c2cc(NCCc3cc(F)c4sccc4c3)ncn2)c2cc[nH]c12` [Example 558, 4-{6-[2-(7-Fluoro-benzo[b]thiophen-5-yl)-ethylamino]-pyrimidin-4-yl}-1H-indole-7-carboxylic acid] was tested, and the IC50 (PTGER2 (EP2)) was 684 nM and the IC50 (PTGER4 (EP4)) was 539 nM.
In the case of `CCOc1cc(-c2cc(NCCc3cc4ccsc4cc3OC)ncn2)cc(F)c1CC(=O)O` [Example 371, (2-Ethoxy-6-fluoro-4-{6-[2-(6-methoxy-benzo[b]thiophen-5-yl)-ethylamino]-pyrimidin-4-yl}-phenyl)-acetic acid], the IC50 (PTGER2 (EP2)) is reported as 86 nM and the IC50 (PTGER4 (EP4)) is reported as 88 nM.
`O=C(O)c1cccc2[nH]c(-c3cc(NCCc4cc(F)c5sccc5c4)ncn3)cc12` [Example 531, 2-{6-[2-(7-Fluoro-benzo[b]thiophen-5-yl)-ethylamino]-pyrimidin-4-yl}-1H-indole-4-carboxylic acid] showed an IC50 (PTGER2 (EP2)) of 624 nM and an IC50 (PTGER4 (EP4)) of 110 nM.
Work on `COc1cc(-c2cc(NCCc3cc(F)c4sccc4c3)ncn2)ccc1CCC(=O)O` [Example 560, 3-(4-{6-[2-(7-Fluoro-benzo[b]thiophen-5-yl)-ethylamino]-pyrimidin-4-yl}-2-methoxy-phenyl)-propionic acid] yielded an IC50 (PTGER2 (EP2)) of 476 nM and an IC50 (PTGER4 (EP4)) of 134 nM.
In the case of `CCOc1cc(-c2cc(NCCc3ccc4sccc4c3)ncn2)cc(F)c1CC(=O)O` [Example 370, {4-[6-(2-Benzo[b]thiophen-5-yl-ethylamino)-pyrimidin-4-yl]-2-ethoxy-6-fluoro-phenyl}-acetic acid], the IC50 (PTGER2 (EP2)) is reported as 438 nM and the IC50 (PTGER4 (EP4)) is reported as 105 nM.
With `CCOc1cc(-c2cc(NCCc3c(OC)cc4c(c3C)OCCO4)ncn2)ccc1CC(=O)O` [Example 399, (2-Ethoxy-4-{6-[2-(7-methoxy-5-methyl-2,3-dihydro-benzo[1,4]dioxin-6-yl)-ethylamino]-pyrimidin-4-yl}-phenyl)-acetic acid] the IC50 (PTGER2 (EP2)) was 10 nM and the IC50 (PTGER4 (EP4)) was 30 nM.
With `CCOc1cc(-c2cc(NCCc3cc(F)c4sccc4c3)ncn2)ccc1OCCC(=O)O` [Example 422, 3-(2-Ethoxy-4-{6-[2-(7-fluoro-benzo[b]thiophen-5-yl)-ethylamino]-pyrimidin-4-yl}-phenoxy)-propionic acid] the IC50 (PTGER2 (EP2)) was 249 nM and the IC50 (PTGER4 (EP4)) was 23 nM.
`COc1cc2c(cc1CCNc1cc(-c3ccc(CC(=O)O)c(OC(F)F)c3)ncn1)OCCO2` [Example 522, (2-Difluoromethoxy-4-{6-[2-(7-methoxy-2,3-dihydro-benzo[1,4]dioxin-6-yl)-ethylamino]-pyrimidin-4-yl}-phenyl)-acetic acid] gave an IC50 (PTGER2 (EP2)) of 131 nM and an IC50 (PTGER4 (EP4)) of 204 nM.
`CC(C)Oc1cc(-c2cc(NCCc3ccc4sccc4c3F)ncn2)ccc1C(=O)O` [Example 492, 4-{6-[2-(4-Fluoro-benzo[b]thiophen-5-yl)-ethylamino]-pyrimidin-4-yl}-2-isopropoxy-benzoic acid] showed an IC50 (PTGER2 (EP2)) of 204 nM and an IC50 (PTGER4 (EP4)) of 142 nM.
Compound `COc1cc(-c2cc(NCCc3cc(F)c4sccc4c3)ncn2)ccc1CC(=O)O` [Example 475, (4-{6-[2-(7-Fluoro-benzo[b]thiophen-5-yl)-ethylamino]-pyrimidin-4-yl}-2-methoxy-phenyl)-acetic acid] has an IC50 (PTGER2 (EP2)) of 663 nM and an IC50 (PTGER4 (EP4)) of 62 nM.
`CCOc1cc2c(cc1CCNc1cc(-c3cc(F)c(CC(=O)O)c(OCC)c3)ncn1)OCCO2` [Example 403, (2-Ethoxy-4-{6-[2-(7-ethoxy-2,3-dihydro-benzo[1,4]dioxin-6-yl)-ethylamino]-pyrimidin-4-yl}-6-fluoro-phenyl)-acetic acid] was tested, and the IC50 (PTGER2 (EP2)) was 57 nM and the IC50 (PTGER4 (EP4)) was 65 nM.
`O=C(O)c1ccc(-c2cc(NCCc3cc4c(cc3OC(F)F)OCCO4)ncn2)cc1OC1CCC1` [Example 494, 2-Cyclobutoxy-4-{6-[2-(7-difluoromethoxy-2,3-dihydro-benzo[1,4]dioxin-6-yl)-ethylamino]-pyrimidin-4-yl}-benzoic acid] showed an IC50 (PTGER2 (EP2)) of 340 nM and an IC50 (PTGER4 (EP4)) of 209 nM.
`COc1cc2c(cc1CCNc1cc(-c3ccc(CC(=O)O)c(OC(C)C)c3)ncn1)OCCO2` [Example 523, (2-Isopropoxy-4-{6-[2-(7-methoxy-2,3-dihydro-benzo[1,4]dioxin-6-yl)-ethylamino]-pyrimidin-4-yl}-phenyl)-acetic acid] gave an IC50 (PTGER2 (EP2)) of 227 nM and an IC50 (PTGER4 (EP4)) of 195 nM.
With `Fc1cc(CCNc2cc(-c3ccc4[nH]ccc4c3)ncn2)cc2ccsc12` [Example 539, [2-(7-Fluoro-benzo[b]thiophen-5-yl)-ethyl]-[6-(1H-indol-5-yl)-pyrimidin-4-yl]amine] the IC50 (PTGER2 (EP2)) was 452 nM and the IC50 (PTGER4 (EP4)) was 225 nM.
`CCOc1cc(-c2cc(NCCc3cc4c(cc3OC(F)F)OCCO4)ncn2)sc1C(=O)O` [Example 433, 5-{6-[2-(7-Difluoromethoxy-2,3-dihydro-benzo[1,4]dioxin-6-yl)-ethylamino}-pyrimidin-4-yl}-3-ethoxy-thiophene-2-carboxylic acid] gave an IC50 (PTGER2 (EP2)) of 30 nM and an IC50 (PTGER4 (EP4)) of 19 nM.
With `COc1cc2ccccc2c(C)c1CCNc1cc(-c2ccc(CC(=O)O)c(OC(F)(F)F)c2)ncn1` [Example 500, (4-{6-[2-(3-Methoxy-1-methyl-naphthalen-2-yl)-ethylamino]-pyrimidin-4-yl}-2-trifluoromethoxy-phenyl)-acetic acid] the IC50 (PTGER2 (EP2)) was 88 nM and the IC50 (PTGER4 (EP4)) was 99 nM.
Work on `CSc1cc(-c2cc(NCCc3ccc4scc(Cl)c4c3)ncn2)ccc1C(=O)O` [Example 429, 4-{6-[2-(3-Chloro-benzo[b]thiophen-5-yl)-ethylamino]-pyrimidin-4-yl}-2-methylsulfanyl-benzoic acid] yielded an IC50 (PTGER2 (EP2)) of 52 nM and an IC50 (PTGER4 (EP4)) of 60 nM.
`COc1cc2c(cc1CCNc1cc(-c3ccc(CC(=O)O)c(C(F)(F)F)c3)ncn1)OCCO2` [Example 525, (4-{6-[2-(7-Methoxy-2,3-dihydro-benzo[1,4]dioxin-6-yl)-ethylamino]-pyrimidin-4-yl}-2-trifluoromethyl-phenyl)-acetic acid] showed an IC50 (PTGER2 (EP2)) of 160 nM and an IC50 (PTGER4 (EP4)) of 349 nM.
